Data: patent US12583856B2, “Inhibitors of protein kinase A” (Blueprint Medicines Corporation, priority 2021, dated 2026)

Assays:
[1] = molecular target: T1, PRKACA-DNAJB1 (Homo sapiens, UniProt P17612); assay: PRKACA-DNAJB1 enzyme assay (EZ Reader 2 electrophoretic mobility shift); assay type: biochemical; conditions: read-out: Enz PRKACA-DNAJB1 IC50
T1 construct: DNAJB1 (fusion partner, P25685); the other entry of the earlier key: DNAJB1 (P25685, DnaJ homolog subfamily B member 1)
Procedure: (§1) A Perkin Elmer electrophoretic mobility shift platform (the EZ Reader 2) was used to assess the activity of test compounds against a kinase of interest. Fluorescently labeled substrate peptide was incubated in the presence of kinase, ATP, and the test compound, so that a portion of the peptide was phosphorylated by the enzyme. At the end of the reaction, the mix of phosphorylated (product) and non-phosphorylated (substrate) peptide containing solutions was passed through the microfluidic system of the Perkin Elmer EZ Reader 2 under an applied potential difference. The presence of the phosphate group on the product peptide provided a difference in mass and charge between those of the substrate peptide, resulting in a separation of the substrate and product pools in the sample. As the stopped solutions passed under the instrument's LED light the phosphorylated and un-phosphorylated fluorophore bound peptides were detected and resolved as separate peaks. The ratio between these peaks therefore reflected the test compound's impact on the kinase at that concentration in that well under those conditions.

[2] = molecular target: T2, PRKACA (Homo sapiens, UniProt P17612); assay: PRKACA assay at Km (EZ Reader 2 electrophoretic mobility shift); assay type: biochemical; conditions: 5 μM ATP (Km), 1 μM Kemptide, 90 minutes at 25 C; read-out: Enz PRKACA IC50
T2 construct: purchased Millipore 539482
Procedure: as §1
PRKACA assay at Km: In each well of a 384-well plate, 0.007 ng/ul (0.18 nM) of PRKACA enzyme (Millipore: 539482) was incubated in a total of 12.5 μl of buffer (100 mM HEPES pH 7.5, 0.015% Brij 35, 10 mM MgCl2, 1 mM DTT) with 1 μM Kemptide peptide substrate (5-FAM-LRRASLG) (Anaspec 29933) and 5 μM ATP at 25 C for 90 minutes in the presence or absence of a dosed concentration series of test compounds (1% DMSO final concentration). The reaction was stopped by the addition of 80 μl of Stop buffer (100 mM HEPES pH 7.5, 0.015% Brij 35, 35 mM EDTA and 0.2% of Coating Reagent 3 (Perkin Elmer)). The plate was then read on the EZ Reader 2 (protocol settings: −2.0 psi, upstream voltage −700, downstream voltage −2700, post sample sip 60 seconds). Data was normalized to 0% and 100% inhibition controls and the IC50 calculated using a 4-parameter fit using GraphPad Prism.

[3] = test system: PKA (phosphorylation of VASP on Serine 157); assay: Cellular potency assay: P-VASP(157) HTRF in Forskolin-stimulated Huh7 cells; assay type: cell-based; conditions: Homo sapiens, Huh-7, 4 hours compound, 5 μM Forskolin 30 minutes, read-out: Phos VASP(S157) IC50
Description: PKA directly phosphorylate VASP on Serine 157. Phosphorylation of VASP on Serine 157. P-VASP(157) was therefore used as a readout of PKA cellular activity. P-VASP(157) was detected with a HTRF assay, which is based on a TR-FRET sandwich immunoassay-based format comprising two specific anti-VASP antibodies following the manufactors protocol (Cisbio, Catalog No. 63ADK066PEH). PKA was activated in the assay by the addition of Forskolin (Sigma-Aldrich, Catalog No. F3917).
Dose response in Forskolin-stimulated human Huh7 cells was measured as follows. Briefly, Huh7 cells were plated at a density of 2×10^4 cells per well in a 384-well opti-well cell culture plate in 15 μl of serum- and phenol-free Dulbecco's Modified Eagle Medium (DMEM, Gibco Catalog No. 21063-029), and incubated for over night at 37° C., 5% CO2. The next day, 3 μl of a dosed concentration series of test compound (0.24%) DMSO final concentration) was added to the wells, and the cells were incubated for an additional 4 hours at 37° C., 5% CO2. 2 μl of Forskolin was added at a final concentration of 5 μM and the plates were incubated for 30 minutes at 37° C., 5% CO2. 5 μl of lysis buffer containing 1% HALT protease cocktail inhibitors (ThermoFisher, Catalog No. 78430), was added to the cells and the mixture was incubated under gentle shaking for 30 min at room temperature. 10 μl of this lysate was transferred to a 384-well proxi plate and 2.5 μL of the premixed antibody solution was added. An antibody solution was prepared by combining phopho-VASP cryptate antibody and phospho-VASP d2 antibody, at twenty-fold dilution into a buffer solution following the manufactors' protocol. The lysate and antibody mixture was incubated for either 3 h at room temperature or overnight at 4° C. The fluorescence emission at two different wavelengths (665 nm and 620 nm) was read on an EnVision instrument.

SMILES	IC50 [1]	IC50 [2]	IC50 [3]
O=C(N[C@H]1C[C@@H](O)c2cccc(F)c21)c1ccc(-c2ccnc3[nH]ccc23)nc1 (single isomer, unassigned) [Compound 119]	1.01 to 5 nM	≤ 1 nM	> 100 nM
O=C(N[C@H]1CCc2cc(C(F)F)ccc21)c1ccc(-c2ccnc3[nH]ccc23)cc1 (single isomer, unassigned) [Compound 125]	≤ 1 nM	≤ 1 nM	< 50 nM
C[C@H]1Oc2cccc(F)c2[C@@H](NC(=O)c2ccc(-c3ccnc4[nH]ccc34)nc2)[C@H]1O (single isomer, unassigned) [Compound 136]	≤ 1 nM	≤ 1 nM	0.01 to 100 nM
Cc1c[nH]c2nccc(-c3ccc(C(=O)N[C@@H]4c5c(F)cc(C(F)F)cc5OCC4O)cn3)c12 (single isomer, unassigned) [Compound 171]	≤ 1 nM	≤ 1 nM	< 50 nM
Cc1c[nH]c2nccc(-c3ccc(C(=O)N[C@@H]4c5c(F)cc(C(F)F)cc5OCC4O)cn3)c12 (single isomer, unassigned) [Compound 172]	≤ 1 nM	≤ 1 nM	< 50 nM
N[C@@H]1Cc2ccccc2[C@H]1NC(=O)c1ccc(-c2ccnc3[nH]ccc23)cc1 [Compound 100, N-[(1R,2R)-2-Amino-2,3-dihydro-1H-inden-1-yl]-4-{1H-pyrrolo[2,3-b]pyridin-4-yl}benzamide]	≤ 1 nM	≤ 1 nM	< 50 nM
O=C(N[C@@H]1c2ccccc2C[C@@H]1O)c1ccc(-c2ccnc3[nH]ccc23)cc1 [Compound 101, N-[(1R,2S)-2-Hydroxy-2,3-dihydro-1H-inden-1-yl]-4-{1H-pyrrolo[2,3-b]pyridin-4-yl}benzamide]	≤ 1 nM	≤ 1 nM	< 50 nM
O=C(N[C@@H]1c2ccccc2C[C@H]1O)c1ccc(-c2ccnc3[nH]ccc23)cc1 [Compound 102]	≤ 1 nM	≤ 1 nM	0.01 to 100 nM
O=C(N[C@H]1CCOc2ccccc21)c1ccc(-c2ccnc3[nH]ccc23)cc1 [Compound 103]	≤ 1 nM	≤ 1 nM	< 50 nM
O=C(N[C@@H]1c2ccccc2C[C@H]1F)c1ccc(-c2ccnc3[nH]ccc23)cc1 [Compound 104, N-((1R,2R)-2-Fluoro-2,3-dihydro-1H-inden-1-yl)-4-(1H-pyrrolo[2,3-b]pyridin-4-yl)benzamide]	≤ 1 nM	≤ 1 nM	0.01 to 100 nM
Cc1c[nH]c2nccc(-c3ccc(C(=O)N[C@@H]4c5ccccc5C[C@H]4O)cc3)c12 [Compound 107, N-[(1R,2R)-2-Hydroxy-2,3-dihydro-1H-inden-1-yl]-4-{3-methyl-1H-pyrrolo[2,3-b]pyridin-4-yl}benzamide]	≤ 1 nM	≤ 1 nM	< 50 nM
C[C@@H]1C[C@H](NC(=O)c2ccc(-c3ccnc4[nH]ccc34)cc2)c2ccccc2O1 [Compound 109]	≤ 1 nM	≤ 1 nM	< 50 nM
O=C(N[C@@H]1c2ccccc2OC[C@@H]1O)c1ccc(-c2ccnc3[nH]ccc23)cc1 [Compound 110, N-[(3R,4R)-3-Hydroxy-3,4-dihydro-2H-1-benzopyran-4-yl]-4-{1H-pyrrolo[2,3-b]pyridin-4-yl}benzamide]	≤ 1 nM	≤ 1 nM	< 50 nM
O=C(N[C@@H]1c2ccccc2C[C@H]1O)c1ccc(-c2ccnc3[nH]cc(F)c23)cc1 [Compound 111]	≤ 1 nM	≤ 1 nM	< 50 nM
O=C(N[C@@H]1c2ccccc2C[C@@H]1O)c1ccc(-c2ccnc3[nH]cc(F)c23)cc1 [Compound 112, 4-(3-Fluoro-1H-pyrrolo[2,3-b]pyridin-4-yl)-N-((1R,2S)-2-hydroxy-2,3-dihydro-1H-inden-1-yl)benzamide]	≤ 1 nM	≤ 1 nM	0.01 to 100 nM
O=C(N[C@H]1CCOc2cc(F)ccc21)c1ccc(-c2ccnc3[nH]ccc23)cc1 [Compound 113]	1.01 to 5 nM	≤ 1 nM	0.01 to 100 nM
O=C(N[C@H]1CCOc2ccc(F)cc21)c1ccc(-c2ccnc3[nH]ccc23)cc1 [Compound 114]	≤ 1 nM	≤ 1 nM	< 50 nM
O=C(N[C@H]1CCOc2ccccc21)c1ccc(-c2ccnc3[nH]cc(F)c23)cc1 [Compound 115]	≤ 1 nM	≤ 1 nM	< 50 nM
O=C(N[C@H]1CCOc2cccc(F)c21)c1ccc(-c2ccnc3[nH]ccc23)nc1 [Compound 117, (S)—N-(5-Fluorochroman-4-yl)-6-(1H-pyrrolo[2,3-b]pyridin-4-yl)nicotinamide]	≤ 1 nM	≤ 1 nM	< 50 nM
CN(C)[C@@H]1Cc2ccccc2[C@H]1NC(=O)c1ccc(-c2ccnc3[nH]ccc23)cc1 [Compound 120, N-[(1R,2R)-2-(Dimethylamino)-2,3-dihydro-1H-inden-1-yl]-4-{1H-pyrrolo[2,3-b]pyridin-4-yl}benzamide]	≤ 1 nM	≤ 1 nM	< 50 nM
Cc1c[nH]c2nccc(-c3ccc(C(=O)N[C@H]4CCOc5cccc(F)c54)cn3)c12 [Compound 121, (S)—N-(5-Fluorochroman-4-yl)-6-(3-methyl-1H-pyrrolo[2,3-b]pyridin-4-yl)nicotinamide]	1.01 to 5 nM	≤ 1 nM	0.01 to 100 nM
O=C(N[C@@H]1c2ccccc2OC[C@@H]1O)c1ccc(-c2ccnc3[nH]cc(F)c23)cc1 [Compound 123]	≤ 1 nM	≤ 1 nM	< 50 nM
O=C(N[C@@H]1c2c(F)cccc2OC[C@@H]1O)c1ccc(-c2ccnc3[nH]ccc23)nc1 [Compound 126, N-[(3R,4R)-5-Fluoro-3-hydroxy-3,4-dihydro-2H-1-benzopyran-4-yl]-6-{1H-pyrrolo[2,3-b]pyridin-4-yl}pyridine-3-carboxamide]	1.01 to 5 nM	≤ 1 nM	< 50 nM
O=C(N[C@@H]1c2c(F)cccc2OC[C@@H]1O)c1ccc(-c2ccnc3[nH]ccc23)cn1 [Compound 127]	1.01 to 5 nM	≤ 1 nM	< 50 nM
O=C(N[C@H]1CCOc2cccc(F)c21)c1ccc(-c2ccnc3[nH]cc(F)c23)cc1 [Compound 128]	≤ 1 nM	≤ 1 nM	< 50 nM
O=C(N[C@H]1CCOc2ccc(F)c(F)c21)c1ccc(-c2ccnc3[nH]ccc23)cc1 [Compound 129, N-[(4S)-5,6-Difluoro-3,4-dihydro-2H-1-benzopyran-4-yl]-4-{1H-pyrrolo[2,3-b]pyridin-4-yl}benzamide]	≤ 1 nM	≤ 1 nM	< 50 nM
O=C(N[C@@H]1c2ccccc2C[C@H]1OCCO)c1ccc(-c2ccnc3[nH]ccc23)cc1 [Compound 134, N-[(1R,2R)-2-(2-Hydroxyethoxy)-2,3-dihydro-1H-inden-1-yl]-4-{1H-pyrrolo[2,3-b]pyridin-4-yl}benzamide]	≤ 1 nM	≤ 1 nM	< 50 nM
Cc1c[nH]c2nccc(-c3ccc(C(=O)N[C@@H]4c5c(F)cccc5OC[C@@H]4O)cn3)c12 [Compound 135]	≤ 1 nM	≤ 1 nM	0.01 to 100 nM
